One test relates to acetylcholine. Kind of test: Anti-acetylcholine Writhing Test. In kind it is in vivo, mice. The conditions noted are these: subcutaneous; for ED50: Mus musculus, sc, 20 min, read-out: Subcutaneous ED50 (95% Confidence Limits). As for the experimental part: This response has also been called writhing. Animals are pretreated with test compounds (20 minutes for both subcutaneous and oral routes) and observed for two minutes immediately following the administration of acetylcholine. Mice not responding during the two-minute observation period are scored protected while those responding one or more times are scored not protected. Test compounds are screened at doses of 75 and 25 mg./kg. subcutaneously or 150 and 50 mg./kg. orally. […] ED50 values for active compounds are estimated by probit analysis of quantal scores for 4 or more dosage levels using 15 animals per dose. Vehicle-pretreated control animals are tested concurrently with each run of 15 experimental animals.

A further test deals with phenazocine. Description: Tail-flick Antagonist Test against phenazocine. The conditions noted are these: for ED50: Rattus norvegicus, sc, 10 min, read-out: Subcutaneous AD50 (95% Confidence Limits) Against Phenazocine.

The values below come from patent US4161598A, “1-Oxygenated-2,6-methano-3-benzazocines” (Sterling Drug Inc., priority 1977, dated 1979).

Where a name gives a salt, the structure may show the parent alone. Read-outs that look alike come from different tables or passages of the source.

As for `CC(=O)Oc1ccc2c(c1)[C@]1(C)CCN(CC3CC3)[C@H](C2=O)[C@@H]1C` (relative stereo) [Example 2, 1,2,3,4,5,6-hexahydro-1-oxo-3-cyclopropylmethyl-8-acetoxy-6(eq),11(ax)-dimethyl-2,6-methano-3-benzazocine hydrochloride], the values for the ED50 with acetylcholine (hydrochloride salt) and in the test with phenazocine were 0.14 mg/kg and 3 mg/kg, respectively.
As for `CCC(=O)Oc1ccc2c(c1)[C@]1(C)CCN(CC3CC3)[C@H](C2=O)[C@@H]1C` (relative stereo) [Example 3, 1,2,3,4,5,6-hexahydro-1-oxo-3-cyclopropylmethyl-8-propionyloxy-6(eq),11(ax)-dimethyl-2,6-methano-3-benzazocine hydrochloride], the “% effect” value in the test with acetylcholine (0.1 mg./kg.) was 20%; in the test on acetylcholine (1 mg./kg.) it was 27%; in the test on acetylcholine (10 mg./kg.) it was 7%; in the test with acetylcholine (100 mg./kg.), 47%. The ED50 in the test with phenazocine is 6 mg/kg.
`CCCC(=O)Oc1ccc2c(c1)[C@]1(C)CCN(CC3CC3)[C@H](C2=O)[C@@H]1C` (relative stereo) [Example 4, 1,2,3,4,5,6-hexahydro-1-oxo-3-cyclopropylmethyl-8-butyryloxy-6(eq),11(ax)-dimethyl-2,6-methano-3-benzazocine hydrochloride]: the values for the ED50 in the test on acetylcholine (form tested not given) and with phenazocine were 0.14 mg/kg and 6.2 mg/kg, respectively.
For `C[C@H]1[C@H]2C(=O)c3ccc(OC(=O)C(C)(C)C)cc3[C@]1(C)CCN2CC1CC1` (relative stereo) [Example 5, 1,2,3,4,5,6-hexahydro-1-oxo-3-cyclopropylmethyl-8-pivalyloxy-6(eq),11(ax)-dimethyl-2,6-methano-3-benzazocine], in that order: 0.06 mg/kg and 38 mg/kg.
The corresponding values for `CC(C)C(=O)Oc1ccc2c(c1)[C@]1(C)CCN(CC3CC3)[C@H](C2=O)[C@@H]1C` (relative stereo) [Example 6, 1,2,3,4,5,6-hexahydro-1-oxo-3-cyclopropylmethyl-8-isobutyryloxy-6(eq),11(ax)-dimethyl-2,6-methano-3-benzazocine] are 0.09 mg/kg and 7 mg/kg.
Turning to `CC(C)CC(=O)Oc1ccc2c(c1)[C@]1(C)CCN(CC3CC3)[C@H](C2=O)[C@@H]1C` (relative stereo) [Example 7, 1,2,3,4,5,6-hexahydro-1-oxo-3-cyclopropylmethyl-8-isovaleryloxy-6(eq),11(ax)-dimethyl-2,6-methano-3-benzazocine], the figures for the ED50 with acetylcholine (form tested not given) and in the test with phenazocine were 0.06 mg/kg and 5.2 mg/kg, respectively.
As to `C[C@H]1[C@H]2C(=O)c3ccc(OC(=O)CC(C)(C)C)cc3[C@]1(C)CCN2CC1CC1` (relative stereo) [Example 8, 1,2,3,4,5,6-hexahydro-1-oxo-3-cyclopropylmethyl-8-(3,3-dimethylbutanoyloxy)-6(eq),11(ax)-dimethyl-2,6-methano-3-benzazocine], the ED50 in the test on acetylcholine (form tested not given) was 0.08 mg/kg.
Turning to `C[C@H]1[C@H]2C(=O)c3ccc(OC(=O)c4ccccc4)cc3[C@]1(C)CCN2CC1CC1` (relative stereo) [Example 9, 1,2,3,4,5,6-hexahydro-1-oxo-3-cyclopropylmethyl-8-benzoyloxy-6(eq),11(ax)-dimethyl-2,6-methano-3-benzazocine], the ED50 with acetylcholine (form tested not given) is 0.07 mg/kg; with phenazocine, 14 mg/kg.
As to `COc1ccc(C(=O)Oc2ccc3c(c2)[C@]2(C)CCN(CC4CC4)[C@H](C3=O)[C@@H]2C)cc1` (relative stereo) [Example 10, 1,2,3,4,5,6-hexahydro-1-oxo-3-cyclopropylmethyl-8-(p-anisoyloxy)-6(eq),11(ax)-dimethyl-2,4-methano-3-benzazocine], the ED50 in the test on acetylcholine (form tested not given) amounted to 0.1 mg/kg.
Consider `COc1cccc(C(=O)Oc2ccc3c(c2)[C@]2(C)CCN(CC4CC4)[C@H](C3=O)[C@@H]2C)c1` (relative stereo) [Example 11, 1,2,3,4,5,6-hexahydro-1-oxo-3-cyclopropylmethyl-8-(m-anisoyloxy)-6(eq),11(ax)-dimethyl-2,6-methano-3-benzazocine hydrochloride], for which the ED50 with acetylcholine (form tested not given) was found to be 0.1 mg/kg.
Same read-out and setting: in the case of `Cc1ccc(C(=O)Oc2ccc3c(c2)[C@]2(C)CCN(CC4CC4)[C@H](C3=O)[C@@H]2C)cc1` (relative stereo) [Example 12, 1,2,3,4,5,6-hexahydro-1-oxo-3-cyclopropylmethyl-8-(p-toluyloxy)-6(eq),11(ax)-dimethyl-2,6-methano-3-benzazocine] it was 0.06 mg/kg.
Same read-out and setting: in the case of `C[C@H]1[C@H]2C(=O)c3ccc(OC(=O)c4ccc(C(F)(F)F)cc4)cc3[C@]1(C)CCN2CC1CC1` (relative stereo) [Example 13, 1,2,3,4,5,6-hexahydro-1-oxo-3-cyclopropylmethyl-8-(p-trifluoromethylbenzoyloxy)-6(eq),11(ax)-dimethyl-2,6-methano-3-benzazocine] it was 0.05 mg/kg.
With `CCCN1CC[C@@]2(C)c3cc(O)ccc3C(=O)[C@@H]1[C@@H]2C` (relative stereo) [Example 15, 1,2,3,4,5,6-hexahydro-1-oxo-3-propyl-8-hydroxy-6(eq),11(ax)-dimethyl-2,6-methano-3-benzazocine], the ED50 was found to be 3.2 mg/kg with acetylcholine (form tested not given) and 2.8 mg/kg with phenazocine.
For `C=CCN1CC[C@@]2(C)c3cc(O)ccc3C(=O)[C@@H]1[C@@H]2C` (relative stereo) [Example 16, 1,2,3,4,5,6-hexahydro-1-oxo-3-allyl-8-hydroxy-6(eq),11(ax)-dimethyl-2,6-methano-3-benzazocine], in that order: 1.5 mg/kg and 2.2 mg/kg.
With `C[C@@H]1[C@H]2C(=O)c3ccc(O)cc3[C@]1(C)CCN2CC1CC1` (relative stereo) [Example 27, 1,2,3,4,5,6-hexahydro-1-oxo-3-cyclopropylmethyl-8-hydroxy-6(eq),11(eq)-dimethyl-2,6-methano-3-benzazocine hydrochloride hemiethanolate], the ED50 with acetylcholine (form tested not given) was determined as 30 mg/kg; in the test with phenazocine it was 2.8 mg/kg.
The corresponding values for `CC[C@@]12CCN(CC3CC3)[C@@H](C1)C(=O)c1ccc(O)cc12` (relative stereo) [Example 28C, 1,2,3,4,5,6-hexahydro-1-oxo-3-cyclopropylmethyl-8-hydroxy-6(eq)-ethyl-2,6-methano-3-benzazocine hydrochloride] are 0.38 mg/kg and 14 mg/kg.
The corresponding values for `CC[C@]12CCN(CC3CC3)[C@H](C(=O)c3ccc(O)cc31)[C@H]2C` (relative stereo) [Example 30C, 1,2,3,4,5,6-hexahydro-1-oxo-3-cyclopropylmethyl-8-hydroxy-6(eq)-ethyl-11(eq)-methyl-2,6-methano-3-benzazocine hydrochloride] are 2.1 mg/kg and 4.2 mg/kg.
For the compound `CC[C@H]1[C@H]2C(=O)c3ccc(O)cc3[C@]1(CC)CCN2CC1CC1` (relative stereo) [Example 31C, 1,2,3,4,5,6-hexahydro-1-oxo-3-cyclopropylmethyl-8-hydroxy-6(eq),11(ax)-diethyl-2,6-methano-3-benzazocine], the ED50 in the test on acetylcholine (methanesulfonate salt) turned out to be 0.15 mg/kg; in the test on phenazocine, 0.48 mg/kg.
As to `CCC[C@]12CCN(CC3CC3)[C@H](C(=O)c3ccc(O)cc31)[C@@H]2C` (relative stereo) [Example 32C, 1,2,3,4,5,6-hexahydro-1-oxo-3-cyclopropylmethyl-8-hydroxy-6(eq)-propyl-11(ax)-methyl-2,6-methano-3-benzazocine], the ED50 in the test with acetylcholine (form tested not given) was determined as 1.5 mg/kg.
For the compound `CC[C@H]1[C@H]2C(=O)c3ccc(O)cc3[C@]1(C)CCN2CC1CC1` (relative stereo) [Example 33E, 1,2,3,4,5,6-hexahydro-1-oxo-3-cyclopropylmethyl-8-hydroxy-6(eq)-methyl-11-(ax)-ethyl-2,6-methano-3-benzazocine], the ED50 with acetylcholine (form tested not given) came out at 0.47 mg/kg; in the test on phenazocine it was 0.17 mg/kg.
For `CCCN1CC[C@@]2(CC)c3cc(O)ccc3C(=O)[C@@H]1[C@@H]2C` (relative stereo) [Example 36, 1,2,3,4,5,6-hexahydro-3-propyl-1-oxo-8-hydroxy-6(eq)-ethyl-11(ax)-methyl-2,6-methano-3-benzazocine methanesulfonate], in that order: 1 mg/kg and 6.2 mg/kg.
For `C=CCN1CC[C@@]2(CC)c3cc(O)ccc3C(=O)[C@@H]1[C@@H]2C` (relative stereo) [Example 37, 1,2,3,4,5,6-hexahydro-3-allyl-1-oxo-8-hydroxy-6(eq)-ethyl-11(ax)-methyl-2,6-methano-3-benzazocine], in that order: 2.3 mg/kg and 6.3 mg/kg.
Regarding `C[C@H]1[C@H]2C(=O)c3ccc(O)cc3[C@]1(C)CCN2CC1CC1` [Example 26C, 2S,6R,11R-1,2,3,4,5,6-hexahydro-1-oxo-3-cyclopropylmethyl-8-hydroxy-6(eq),11(ax)-dimethyl-2,6-methano-3-benzazocine], the ED50 with acetylcholine (methanesulfonate salt) was determined as 0.11 mg/kg; in the test on phenazocine, 2.4 mg/kg.
For the compound `C[C@@H]1[C@@H]2C(=O)c3ccc(O)cc3[C@@]1(C)CCN2CC1CC1` [Example 26D, dextro-rotatory 2S,6R,11R-1,2,3,4,5,6-hexahydro-1-oxo-3-cyclopropylmethyl-8-hydroxy-6(eq),11(ax)-dimethyl-2,6-methano-3-benzazocine], the “% effect” value was found to be 33% in the test on acetylcholine (25 mg./kg., methanesulfonate salt) and 93% in the test with acetylcholine (75 mg./kg., methanesulfonate salt). For the same compound, the “narcotic antagonist effect against phenazocine” value in the test on phenazocine (10 mg./kg. subcutaneously, methanesulfonic salt, in words) was “inactive”. In addition, in the test with phenazocine (80 mg./kg. subcutaneously, methanesulfonic salt), the “% effect against phenazocine” value was determined as 32%.
